# Assay results published in ChEMBL document CHEMBL1126972, “Synthesis of 2-imidazolidinylidenepropanedinitrile derivatives as stimulators of gastrointestinal motility” (J Med Chem, 1993).
# Calls of active or inactive are those of the source. No cut-off for these calls is given here.
# Species on record: Cavia porcellus
# Experiment: In vitro gastrointestinal motility enhancing activity was determined by potentiating action on electrically evoked contraction of the isolated guinea pig ileum; the maximum contraction was not achieved to 30%
# Assay type: functional
# Details: not given
row,SMILES,EC30
1,CN(C)C(=O)Oc1cccc([N+](C)(C)C)c1,inactive

# Species on record: Cavia porcellus
# Experiment: In vitro gastrointestinal motility enhancing activity was determined by potentiating action on electrically evoked contraction of the isolated guinea pig ileum; no effect
# Assay type: functional
# Details: not given
row,SMILES,EC30
1,CN(C)Cc1ccc(CNCCN2CCN/C2=C\[N+](=O)[O-])o1,inactive
2,CNC(NCCNCc1ccc(COC)o1)=C(C#N)C#N,inactive
3,N#CC(C#N)=C1Nc2ccccc2N1CCNCc1ccc(CN2CCCCC2)o1,inactive
4,CC1CCCC(C)N1Cc1ccc(CNCCN2CCNC2=C(C#N)C#N)o1 (stereo not given),inactive

# Species on record: Cavia porcellus
# Experiment: In vitro gastrointestinal motility enhancing activity was determined by potentiating action on electrically evoked contraction of the isolated guinea pig ileum;No effect.
# Assay type: functional
# Details: not given
row,SMILES,EC30
1,COc1cc(N)c(Cl)cc1C(=O)NCCNCc1ccc(CN(C)C)o1,No effect

# Target: Acetylcholinesterase (Homo sapiens) (UniProt P22303)
# Details: Cavia porcellus; Ileum
# Sequence of Acetylcholinesterase (Homo sapiens) (P22303 whole entry): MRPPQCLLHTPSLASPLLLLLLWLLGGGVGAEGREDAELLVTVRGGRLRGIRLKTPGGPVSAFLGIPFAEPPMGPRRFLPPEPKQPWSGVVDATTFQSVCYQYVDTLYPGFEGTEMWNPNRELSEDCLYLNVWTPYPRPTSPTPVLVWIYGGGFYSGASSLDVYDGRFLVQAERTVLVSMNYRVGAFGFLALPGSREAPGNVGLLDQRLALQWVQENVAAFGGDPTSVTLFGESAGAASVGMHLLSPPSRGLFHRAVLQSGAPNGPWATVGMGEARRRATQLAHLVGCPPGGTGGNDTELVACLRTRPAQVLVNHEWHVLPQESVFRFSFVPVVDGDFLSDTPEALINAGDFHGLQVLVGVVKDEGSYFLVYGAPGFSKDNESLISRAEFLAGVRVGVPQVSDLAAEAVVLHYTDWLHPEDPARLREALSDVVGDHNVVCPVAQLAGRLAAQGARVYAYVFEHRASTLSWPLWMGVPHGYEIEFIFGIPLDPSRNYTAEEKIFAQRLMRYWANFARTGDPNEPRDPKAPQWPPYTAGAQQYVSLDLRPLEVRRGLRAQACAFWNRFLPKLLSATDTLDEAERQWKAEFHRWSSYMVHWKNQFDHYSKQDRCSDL
row,SMILES,EC30 [nM]
1,COC1CCN(Cc2ccc(CNCCN3CCNC3=C(C#N)C#N)o2)CC1,11000
2,CN1CCN(Cc2ccc(CNCCN3CCNC3=C(C#N)C#N)o2)CC1,1700
3,CCN(CC)Cc1ccc(CNCCN2CCNC2=C(C#N)C#N)o1,1000
4,CNC(NCCNCc1ccc(CN(C(C)C)C(C)C)o1)=C(C#N)C#N,8500
5,CCN(CC)CCNC(=O)c1cc(Cl)c(N)cc1OC,430
6,N#CC(C#N)=C1NCCN1CCNCc1ccc(CN2CCCC(O)C2)o1 (stereo not given),460
7,N#CC(C#N)=C1NCCN1CCNCc1ccc(CN2CCCC2)o1,310
8,CNC(NCCNCc1ccc(CN2CCCCC2)o1)=C(C#N)C#N,4100
9,CC1CCN(Cc2ccc(CNCCN3CCNC3=C(C#N)C#N)o2)CC1,260
10,N#CC(C#N)=C1NCCN1CCNCc1ccc(CN2CCCCCC2)o1,320
11,COC1CCCN(Cc2ccc(CNCCN3CCNC3=C(C#N)C#N)o2)C1 (stereo not given),1400
12,N#CC(C#N)=C1NCCN1CCNCc1ccc(CN2CCOCC2)o1,13000
13,CNC(NCCNCc1ccc(CN2CCCC2)o1)=C(C#N)C#N,2000
14,N#CC(C#N)=C1NCCN1CCNCc1ccc(CN2CCC(O)CC2)o1,430
15,N#CC(C#N)=C1NCCN1CCNCc1ccc(CN2CCCCC2)o1,16
16,CNC(=C[N+](=O)[O-])NCCSCc1ccc(CN(C)C)o1,1800
17,C/N=c1\c(O)c(O)\c1=N/CCNCc1ccc(CN2CCCCC2)o1,7200
18,N#CC(C#N)=C1NCCN1CCNCc1ccc(CN2CC=CCC2)o1,81
19,CN(C)Cc1ccc(CNCCN2CCNC2=C(C#N)C#N)o1,370
20,CC1CCCCN1Cc1ccc(CNCCN2CCNC2=C(C#N)C#N)o1 (stereo not given),910
21,CC1CCCN(Cc2ccc(CNCCN3CCNC3=C(C#N)C#N)o2)C1 (stereo not given),410
22,CCN(C)Cc1ccc(CNCCN2CCNC2=C(C#N)C#N)o1,540
23,N#CC(C#N)=C1NCCN1CCNCc1ccc(CN2CCSCC2)o1,2900
24,CNC(NCCNCc1ccc(CN(C)C)o1)=C(C#N)C#N,2100
